Data reported in patent publication US20080249042A1, “All-Trans-Retinol: All-Trans-13,14-Dihydroretinol Saturase and Methods of Its Use” (UNIVERSITY OF WASHINGTON, priority 2004, published 2008).
Where two headings read alike, the source gives them in different places. One block for each molecule: values may come before it.

How the values were obtained:
[1] = Liver retinoids of Lrat-/- mice 3 h after gavage with all-trans-DROL; assay type: in vivo, mouse; conditions: 3 h post-gavage
Source text: (§1) Metabolism of Retinoids in Vivo. All animal experiments employed procedures approved by the University of Washington and conformed to recommendations of the American Veterinary Medical Association Panel on Euthanasia and recommendations of the Association of Research for Vision and Ophthalmology. Animals were maintained on a 12-h light and 12-h dark cycle. All manipulations were done under dim red or infrared light (>560 nm). Most experiments used 6-12-week-old mice. Lrat−/− mice were genotyped as described previously. Batten, et al. J. Biol. Chem. 279:10422-10432, 2004. Animals were maintained on a control chow diet up to 1 h prior to oral gavage. The appropriate amount of all-trans-ROL palmitate, all-trans-DROL, or all-trans-RA was dissolved in vegetable oil and administered by oral gavage 3 h prior to analysis.
(§2) Analysis of Retinoids. Liver (1 g) from retinoid gavaged or naive mice was homogenized in 2 ml of 137 mM NaCl, 2.7 mM KCl, and 10 mM sodium phosphate (pH 7.4) for 30 s using a Polytron homogenizer. 10 μl of 5 M NaOH was added to 3 ml of the ethanolic extract, and the nonpolar retinoids were extracted using 5 ml of hexane. The extraction was repeated, and the organic phases were combined, dried under vacuum, resuspended in hexane, and examined by normal phase HPLC using a normal phase column (Beckman Ultrasphere Si 5μ, 4.6×250 mm). […] The HPLC elution conditions were […], 100% buffer A for 40 min, 100% buffer B for 10 min, and 10 min equilibration in buffer A. The elution profiles of RA and DRA were monitored using an online diode array detector set at 350 and 290 nm, respectively. […] The measured area of absorbance was converted to picomoles based on a calibration of the HPLC columns using a known amount of all-trans-RA or all-trans-ROL (Sigma) and all-trans-DROL or all-trans-DRA (synthetic standards). The extraction efficiency was monitored by spiking a tissue sample with [^3H]RA (PerkinElmer Life Sciences) and monitoring the radioactivity recovered from the HPLC column. […]

[2] = Liver retinoids of Lrat-/- mice 3 h after gavage with all-trans-ROL palmitate; assay type: in vivo, mouse; conditions: Lrat−/− (LRAT-deficient knockout), mouse, liver, oral, Lrat-/- mice, liver, 3 hr post-gavage, read-out: Level of liver retinoids 3 hr following gavage with ROL palmitate
Source text: as §1
Analysis of Retinoids. Liver (1 g) from retinoid gavaged or naive mice was homogenized in 2 ml of 137 mM NaCl, 2.7 mM KCl, and 10 mM sodium phosphate (pH 7.4) for 30 s using a Polytron homogenizer. 10 μl of 5 M NaOH was added to 3 ml of the ethanolic extract, and the nonpolar retinoids were extracted using 5 ml of hexane. The extraction was repeated, and the organic phases were combined, dried under vacuum, resuspended in hexane, and examined by normal phase HPLC using a normal phase column (Beckman Ultrasphere Si 5μ, 4.6×250 mm). The elution condition was an isocratic solvent system of 10% ethyl acetate in hexane (v/v) for 25 min at a flow rate of 1.4 ml/min at 20° C. with detection at 325 and 290 nm for the detection of nonpolar retinoids and 13,14-dihydroretinoids, respectively. The aqueous phase was acidified with 40 μl of 12 N HCl, and polar retinoids were extracted with 5 ml of hexane. The extraction was repeated, and the organic phases of the polar retinoid extractions were combined, dried, resuspended in solvent composed of 80% CH3CN, 10 mM ammonium acetate, 1% acetic acid, and examined by reverse phase HPLC. Analysis of polar retinoids from tissues was done by reverse phase HPLC using a narrowbore, 120-Å, 5-μm, 2.1×250 mm, Denali C18 column (Grace-Vydac, Hesperia, Calif.). The solvent system was composed of buffer A, 80% methanol, 20% 36 mM ammonium acetate (pH 4.7 adjusted with acetic acid), and buffer B, 100% methanol. The HPLC elution conditions were […], 100% buffer A for 40 min, 100% buffer B for 10 min, and 10 min equilibration in buffer A. The elution profiles of RA and DRA were monitored using an online diode array detector set at 350 and 290 nm, respectively. The peaks were identified based on their UV-visible spectra and/or coelution with synthetic or commercially available standards. The measured area of absorbance was converted to picomoles based on a calibration of the HPLC columns using a known amount of all-trans-RA or all-trans-ROL (Sigma) and all-trans-DROL or all-trans-DRA (synthetic standards). The extraction efficiency was monitored by spiking a tissue sample with [^3H]RA (PerkinElmer Life Sciences) and monitoring the radioactivity recovered from the HPLC column. In the case of liver samples the extraction efficiency was 95% or better. Mass spectrometry analyses of synthesized retinoids and of natural retinoids purified by HPLC were performed using a Kratos profile HV-3 direct probe mass spectrometer.

[3] = Liver retinoids of Lrat-/- mice 3 h after gavage with all-trans-RA; assay type: in vivo, mouse; conditions: 3 h post-gavage
Source text: as §1, §2

[4] = biological target: T1, mouse RetSat (Mus musculus, UniProt Q64FW2); assay: RetSat saturase activity in Tet-induced HEKK-RetSat cells; assay type: cell-based; conditions: 40 μM substrate, overnight incubation
T1 construct: expressed in transfected cells
T1 sequence (Q64FW2 26-609): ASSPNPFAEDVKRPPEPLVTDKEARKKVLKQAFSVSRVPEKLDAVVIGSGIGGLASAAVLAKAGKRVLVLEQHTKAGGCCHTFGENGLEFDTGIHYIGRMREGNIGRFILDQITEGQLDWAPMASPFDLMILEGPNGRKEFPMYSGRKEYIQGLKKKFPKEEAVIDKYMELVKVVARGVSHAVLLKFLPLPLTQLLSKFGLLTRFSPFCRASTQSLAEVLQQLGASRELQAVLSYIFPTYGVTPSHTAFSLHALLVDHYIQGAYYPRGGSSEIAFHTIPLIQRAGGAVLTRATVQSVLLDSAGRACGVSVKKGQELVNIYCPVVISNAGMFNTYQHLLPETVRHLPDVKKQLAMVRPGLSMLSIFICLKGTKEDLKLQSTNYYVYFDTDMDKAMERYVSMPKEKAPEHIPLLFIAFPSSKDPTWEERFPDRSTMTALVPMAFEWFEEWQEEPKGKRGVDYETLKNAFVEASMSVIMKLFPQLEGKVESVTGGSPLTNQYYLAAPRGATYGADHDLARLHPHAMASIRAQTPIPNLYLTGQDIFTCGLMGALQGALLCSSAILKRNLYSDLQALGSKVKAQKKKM
Description: Enzyme assays of RetSat and CRTISO-catalyzed reactions. For enzyme assay, cells were seeded in six-well plates and expression of RetSat or CRTISO was induced with 1 μg/ml tetracycline 48 hr prior to analysis. Substrate preparation and addition were conducted under dim red light. Retinoid substrates were purified by HPLC as described above and dissolved in N,N-dimethylformamide (DMF) to a final concentration of 4 mM. Organic extract of tangerine tomatoes was dried under a stream of argon and resuspended in DMF. The substrates were diluted in 300 μl complete media (tetracycline 1 μg/ml) to a 40 μM final concentration, overlayed on cells, and incubated overnight in the dark at 37° C. in 5% CO2 and 100% humidity. Media and cells were collected by scraping, mixed with an equal volume of methanol. For retinol and dihydroretinol analysis the methanol:water mixture was extracted with two volumes of hexane, then the organic phase was dried, resuspended in hexane, and analyzed by normal-phase HPLC. […] For carotenoid analysis the organic phase was dried and resuspended in ethanol/tetrahydrofuran (9:1) and examined by reverse-phase HPLC System I. For retinoic acid analysis the 1:1 methanol:water mixture was acidified with 0.1 volumes of 12N HCl and extracted with 1 volume of chlorofom, dried and resuspended in ethanol and examined by reverse-phase HPLC System II.

[5] = biological target: T2, tomato CRTISO (Solanum lycopersicum, UniProt Q8S4R4); assay: CRTISO activity in transfected HEKK cells; assay type: cell-based; conditions: CRTISO-expressing cells, overnight, in the dark
T2 construct: expressed in transfected cells
T2 sequence (Q8S4R4 with tags, fused parts or gaps): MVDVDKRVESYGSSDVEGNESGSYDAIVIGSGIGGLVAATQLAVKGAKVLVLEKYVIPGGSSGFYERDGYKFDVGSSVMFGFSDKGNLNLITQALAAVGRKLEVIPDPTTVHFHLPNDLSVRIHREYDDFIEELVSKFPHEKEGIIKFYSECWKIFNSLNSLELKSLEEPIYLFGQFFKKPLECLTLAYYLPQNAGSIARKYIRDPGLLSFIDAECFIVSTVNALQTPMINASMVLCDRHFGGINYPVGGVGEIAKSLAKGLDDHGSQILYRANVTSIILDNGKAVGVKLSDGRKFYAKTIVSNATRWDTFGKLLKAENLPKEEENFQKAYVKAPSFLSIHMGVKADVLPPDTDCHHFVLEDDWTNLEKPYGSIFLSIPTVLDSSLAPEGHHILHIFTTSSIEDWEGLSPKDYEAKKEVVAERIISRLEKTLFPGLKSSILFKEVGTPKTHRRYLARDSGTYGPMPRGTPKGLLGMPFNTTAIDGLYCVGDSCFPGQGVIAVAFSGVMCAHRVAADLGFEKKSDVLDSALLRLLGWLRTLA
Description: 7Z,9Z,9′Z,7′Z-Tetra-cis-tycopene purification and reverse-phase HPLC analysis of carotenoids. Carotenoid extraction and analysis were performed under dim red light. One gram from the fruit of a tangerine tomato was freeze-thawed three times and extracted with 2 ml PBS, 2 ml of ethanol, and 6 ml of hexane with the aid of a douncer. The organic phase was dried and resuspended in ethanol/tetrahydrofuran (9:1), and examined by reverse-phase HPLC System I (Prontosil, 200-3-C30, 3 μm, 4.6 mm×250 mm, Bischoff Chromatography, Leonberg, Germany) with a mobile phase of 75% tert-butyl methyl ether/25% methanol and a flow rate of 1 ml/min. More than 90% of the extract consisted of 7Z,9Z,9′Z,7′Z-tetra-cis-lycopene identified based on its published UV/VIS absorption spectrum in hexane with the following characteristics: shoulder at λ=417 nm, ε=90,000 M^−1cm^−1, λmax=437 nm, ε=105,000 M−1 cm^−1, shoulder at λ=461 nm ε=70,000 M^−1cm^−1. Bradford, Anal Biochem 72:248-254, 1976.
Enzyme assays of RetSat and CRTISO-catalyzed reactions. For enzyme assay, cells were seeded in six-well plates and expression of RetSat or CRTISO was induced with 1 μg/ml tetracycline 48 hr prior to analysis. […] For retinol and dihydroretinol analysis the methanol:water mixture was extracted with two volumes of hexane, then the organic phase was dried, resuspended in hexane, and analyzed by normal-phase HPLC. […]

[6] = biological target: T1, mouse RetSat; conditions: earlier report, Moise et al. 2004; cited from earlier work

Level in liver after gavage with all-trans-DROL [1]: low levels
concentration at 3 h ([2]; 10^5 IU/kg body weight all-trans-ROL palmitate): 200 ± 8 nM
concentration at 3 h ([2]; 10^6 IU/kg body weight all-trans-ROL palmitate): 1800 nM
Formation in liver after gavage with all-trans-RA [3]: no evidence
SMILES: CC1=C(/C=C/C(C)=C/C=C/C(C)CO)C(C)(C)CCC1 (single isomer, unassigned) [C19-ROL, (3E,5E,7E)-2,6-dimethyl-8-(2,6,6-trimethylcyclohex-1-enyl)octa-3,5,7-trien-1-ol]

SMILES: CC(C)=CCC/C(C)=C/C=C/C(C)=C/C=C/C(C)=C/C=C/C=C(C)/C=C/C=C(C)/C=C/C=C(\C)CCC=C(C)C [7Z,9Z,9′Z,7′Z-tetra-cis-lycopene]
Saturation by RetSat (substrate activity) [4]: no difference
Conversion by CRTISO (substrate activity) [5]: converted

SMILES: CC1=C(/C=C/C(C)=C\C=C\C(C)=C\C(=O)O)C(C)(C)CCC1 [9-cis-RA, 9-cis-retinoic acid]
Saturation by RetSat [6]: does not saturate

Level in liver after gavage with all-trans-DROL [1]: significant levels
Formation in liver after gavage with all-trans-RA [3]: no evidence
SMILES: CC(C=CC1=C(C)C(=O)CCC1(C)C)=CC=CC(C)CC(=O)O (stereo not drawn) [all-trans-4-oxo-DRA]
